Results published in US8076487B2, “Pyridone derivative and herbicide” (Kumiai Chemical Industry Co., Ltd., priority 2006, dated 2011).

Columns and labels:
Format in all cases: in vivo
[1] = system: Japanese bulrush (Scirpus juncoides Roxb.); assay: Test Example 1: herbicidal effect by soil application to paddy field; conditions: paddy field soil application; active ingredient 1,000 g per 1 hectare; wettable powder added dropwise to water surface the day after sowing; examined on the 21st day after application
Procedure, shortened: (§1)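 Under greenhouse conditions, seeds sown on puddled paddy soil in 100 cm2 pots under 3 cm of standing water received the test compound; injury was assessed with a standard scoring scheme three weeks (day 21) after treatment.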

[2] = system: heartshape false pickerelweed (Monochoria vaginalis (Burm.f.) C.Presl); assay: as above; conditions: paddy field soil application; active ingredient 1,000 g per 1 hectare; wettable powder added dropwise to water surface the day after sowing; examined on the 21st day after application
Procedure, shortened: as §1

[3] = system: early watergrass (Echinochloa oryzicola Vasing); assay: as above; conditions: paddy field soil application; active ingredient 1,000 g per 1 hectare; wettable powder added dropwise to water surface the day after sowing; examined on the 21st day after application
Procedure, shortened: as §1

[4] = system: barnyardgrass (Echinochloa crus-galli (L.) P. Beauv. var. crus-galli); assay: Test Example 2: herbicidal effect by soil application to upland field; conditions: soil surface spray, upland field soil, 1,000 g active ingredient per hectare, 21st day after application
Procedure, shortened: (§2)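 In this soil-application test, sown and soil-covered pots are sprayed uniformly with the formulation diluted in water, giving 1,000 g of active ingredient per ha in a volume of 1,000 L per ha. Plants then grow in a greenhouse for 21 days before herbicidal scoring by a standard scale.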

[5] = system: slender amaranth (Amaranthus viridis L.); assay: as above; conditions: soil surface spray, upland field soil, 1,000 g active ingredient per hectare, 21st day after application
Procedure, shortened: as §2

[6] = system: velvetleaf (Abutilon theophrasti medicus); assay: as above; conditions: soil surface spray, upland field soil, 1,000 g active ingredient per hectare, 21st day after application
Procedure, shortened: as §2

[7] = system: green foxtail (Setaria viridis (L.) P. Beauv.); assay: as above; conditions: soil surface spray, upland field soil, 1,000 g active ingredient per hectare, 21st day after application
Procedure, shortened: as §2

[8] = system: barnyardgrass (Echinochloa crus-galli (L.) P. Beauv. var. crus-galli); assay: Test Example 3: herbicidal effect by application to upland field (foliage treatment); conditions: 14th day after application; for herbicidal effect (index), Barnyardgrass: foliage treatment, plants grown two weeks, 1,000 g active ingredient per hectare; for herbicidal effect, Barnyardgrass: foliage treatment, 1,000 g active ingredient per 1 hectare, greenhouse
Procedure, shortened: (§3)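 A single foliar application of a water-diluted wettable powder, at 1,000 g of active ingredient per hectare, was made to plants raised for two weeks from seed in field soil. Herbicidal activity was judged visually after a further 14 days in the greenhouse.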

[9] = system: slender amaranth (Amaranthus viridis L.); assay: as above; conditions: 14th day after application; for herbicidal effect (index), Slender Amaranth: foliage treatment, plants grown two weeks, 1,000 g active ingredient per hectare; for herbicidal effect, Slender Amaranth: foliage treatment, 1,000 g active ingredient per 1 hectare, greenhouse
Procedure, shortened: as §3

[10] = system: velvetleaf (Abutilon theophrasti medicus); assay: as above; conditions: 14th day after application; for herbicidal effect (index), Velvetleaf: foliage treatment, plants grown two weeks, 1,000 g active ingredient per hectare; for herbicidal effect, Velvetleaf: foliage treatment, 1,000 g active ingredient per 1 hectare, greenhouse
Procedure, shortened: as §3

[11] = system: green foxtail (Setaria viridis (L.) P. Beauv.); assay: as above; conditions: 14th day after application; for herbicidal effect (index), Green Foxtail: foliage treatment, plants grown two weeks, 1,000 g active ingredient per hectare; for herbicidal effect, Green Foxtail: foliage treatment, 1,000 g active ingredient per 1 hectare, greenhouse
Procedure, shortened: as §3

Row | SMILES | herbicidal effect, Scirpus juncoides Roxb. [1] | herbicidal effect, Monochoria vaginalis (Burm. f.) C. Presl [2] | herbicidal effect, Echinochloa oryzicola Vasing [3] | herbicidal effect (index), Barnyardgrass [4] | herbicidal effect (index), Slender Amaranth [5] | herbicidal effect (index), Velvetleaf [6] | herbicidal effect (index), Green Foxtail [7] | herbicidal effect (index), Barnyardgrass [8] | herbicidal effect (index), Slender Amaranth [9] | herbicidal effect (index), Velvetleaf [10] | herbicidal effect (index), Green Foxtail [11] | herbicidal effect, Barnyardgrass [8] | herbicidal effect, Slender Amaranth [9] | herbicidal effect, Velvetleaf [10] | herbicidal effect, Green Foxtail [11]
1 | O=C1CCCC(O)=C1C(=O)c1ccc(C(F)(F)F)n(-c2cc(F)cc(F)c2)c1=O [I-106] | 5 (90% or more of herbicidal effect and crop phytotoxicity) | 5 (90% or more of herbicidal effect and crop phytotoxicity) | 5 (90% or more of herbicidal effect and crop phytotoxicity) | 5 (90% or more of herbicidal effect and crop phytotoxicity) | 5 (90% or more of herbicidal effect and crop phytotoxicity) | 5 (90% or more of herbicidal effect and crop phytotoxicity) | 5 (90% or more of herbicidal effect and crop phytotoxicity) | 5 (90% or more of herbicidal effect and crop phytotoxicity) | 5 (90% or more of herbicidal effect and crop phytotoxicity) | 5 (90% or more of herbicidal effect and crop phytotoxicity) | 5 (90% or more of herbicidal effect and crop phytotoxicity) | – | – | – | –
2 | C[S+]([O-])CCCn1c(C(F)(F)F)ccc(C(=O)C2=C(O)CCCC2=O)c1=O (stereo not drawn) [I-70] | 5 (90% or more of herbicidal effect and crop phytotoxicity) | 5 (90% or more of herbicidal effect and crop phytotoxicity) | 5 (90% or more of herbicidal effect and crop phytotoxicity) | 5 (90% or more of herbicidal effect and crop phytotoxicity) | 5 (90% or more of herbicidal effect and crop phytotoxicity) | 5 (90% or more of herbicidal effect and crop phytotoxicity) | 5 (90% or more of herbicidal effect and crop phytotoxicity) | 5 (90% or more of herbicidal effect and crop phytotoxicity) | 5 (90% or more of herbicidal effect and crop phytotoxicity) | 5 (90% or more of herbicidal effect and crop phytotoxicity) | 5 (90% or more of herbicidal effect and crop phytotoxicity) | – | – | – | –
3 | CSc1cccc(-n2c(C(F)(F)F)ccc(C(=O)C3=C(O)CCCC3=O)c2=O)c1 [I-80] | 5 (90% or more of herbicidal effect and crop phytotoxicity) | 5 (90% or more of herbicidal effect and crop phytotoxicity) | 5 (90% or more of herbicidal effect and crop phytotoxicity) | 5 (90% or more of herbicidal effect and crop phytotoxicity) | 5 (90% or more of herbicidal effect and crop phytotoxicity) | 5 (90% or more of herbicidal effect and crop phytotoxicity) | 5 (90% or more of herbicidal effect and crop phytotoxicity) | 5 (90% or more of herbicidal effect and crop phytotoxicity) | 5 (90% or more of herbicidal effect and crop phytotoxicity) | 5 (90% or more of herbicidal effect and crop phytotoxicity) | 5 (90% or more of herbicidal effect and crop phytotoxicity) | – | – | – | –
4 | CCCn1c(C(F)(F)F)ccc(C(=O)c2cnn(C)c2O)c1=O [IV-3] | 5 (90% or more of herbicidal effect and crop phytotoxicity) | 5 (90% or more of herbicidal effect and crop phytotoxicity) | 5 (90% or more of herbicidal effect and crop phytotoxicity) | 5 (90% or more of herbicidal effect and crop phytotoxicity) | 5 (90% or more of herbicidal effect and crop phytotoxicity) | 5 (90% or more of herbicidal effect and crop phytotoxicity) | 5 (90% or more of herbicidal effect and crop phytotoxicity) | – | – | – | – | 5 (90% or more of herbicidal effect and crop phytotoxicity) | 5 (90% or more of herbicidal effect and crop phytotoxicity) | 5 (90% or more of herbicidal effect and crop phytotoxicity) | 5 (90% or more of herbicidal effect and crop phytotoxicity)
5 | O=C1CCCC(O)=C1C(=O)c1cc(Br)c(C(F)F)n(-c2ccccc2)c1=O [I-224] | 5 (90% or more of herbicidal effect and crop phytotoxicity) | 5 (90% or more of herbicidal effect and crop phytotoxicity) | 5 (90% or more of herbicidal effect and crop phytotoxicity) | 5 (90% or more of herbicidal effect and crop phytotoxicity) | 5 (90% or more of herbicidal effect and crop phytotoxicity) | 5 (90% or more of herbicidal effect and crop phytotoxicity) | 5 (90% or more of herbicidal effect and crop phytotoxicity) | – | – | – | – | 5 (90% or more of herbicidal effect and crop phytotoxicity) | 5 (90% or more of herbicidal effect and crop phytotoxicity) | 5 (90% or more of herbicidal effect and crop phytotoxicity) | 5 (90% or more of herbicidal effect and crop phytotoxicity)
6 | C[S+]([O-])CCn1c(C(F)(F)F)ccc(C(=O)C2=C(O)CCCC2=O)c1=O (stereo not drawn) [I-66] | 5 (90% or more of herbicidal effect and crop phytotoxicity) | 5 (90% or more of herbicidal effect and crop phytotoxicity) | 5 (90% or more of herbicidal effect and crop phytotoxicity) | 5 (90% or more of herbicidal effect and crop phytotoxicity) | 5 (90% or more of herbicidal effect and crop phytotoxicity) | 5 (90% or more of herbicidal effect and crop phytotoxicity) | 5 (90% or more of herbicidal effect and crop phytotoxicity) | 5 (90% or more of herbicidal effect and crop phytotoxicity) | 5 (90% or more of herbicidal effect and crop phytotoxicity) | 5 (90% or more of herbicidal effect and crop phytotoxicity) | 5 (90% or more of herbicidal effect and crop phytotoxicity) | – | – | – | –
